Data on 20 compounds can be found in patent US11098041B2 (Merck Patent GmbH, priority 2014, dated 2021).

In one test the target is full-length human BTK (Homo sapiens (Human), UniProt Q06187). Kind of test: Assay A: microfluidic off-chip mobility shift assay against BTK enzyme. It is filed as biochemical.
For test [1], the target named is BTK C481S (His-TEV-hsBTK(328-659)(C481S)) (Homo sapiens (Human), UniProt Q06187, C481S). Kind of test: Assay B: microfluidic off-chip mobility shift assay against BTK C481S enzyme. As to conditions: BTK C481S mutant. It is filed as biochemical. In short, it runs like this:
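Substrate-to-phosphopeptide conversion quantified by microfluidic mobility shift with laser-induced fluorescence; IC50 and efficacy from log[inhibitor] vs. % activity.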

In test [2] the test system is anti-IgM-induced expression of CD69 on CD19 positive cells (B cells) in human PBMCs. Kind of test: Assay C: PBMC IC50 assay (anti-IgM-induced CD69 expression). It is filed as cell-based. The settings on record: anti-IgM stimulation. As to the method:
Btk is critical for mediating the signalling of B cell antigen receptor (BCR) after anti-IgM stimulation. Based on this principle, a functional cell-based assay was established to determine the potency of compounds at inhibiting anti-IgM-induced expression of CD69, a downstream BCR signaling event, in freshly isolated human peripheral blood mononuclear cells (PBMCs). In the assay, a 90 μl PBMC suspension containing 2.5×10^5 cells was pre-treated with 10 μl of test compound at various concentrations for an hour, and then incubated overnight (approximately 16-18 hours) with 5 μl 420 μg/ml affiniPure F(ab′)2 fragment goat anti-human IgM Fc fragment per well (Dianova, Cat. No.: 109-006-129). After the incubation, the cells were washed and immunostained with an APC-labeled mouse anti-human CD69 (BD Biosciences; clone: FN50), a PerCP-Cy5.5 labelled mouse anti-human CD19 (BD Biosciences; clone: SJ25C1) and a FITC-labelled mouse anti-human CD3 (BD Biosciences; clone: HIT3a), and fixed for flow cytometric analysis of CD69 expression on CD19 positive cells (B cells). The percentage of CD69 expressing CD19 positive cells was plotted against the concentrations of test compounds to obtain a concentration response curve, and calculate an IC50 value as a measure of the potency of test compounds in the assay.

Sequence of BTK C481S (His-TEV-hsBTK(328-659)(C481S)) (Q06187 328-659 C481S): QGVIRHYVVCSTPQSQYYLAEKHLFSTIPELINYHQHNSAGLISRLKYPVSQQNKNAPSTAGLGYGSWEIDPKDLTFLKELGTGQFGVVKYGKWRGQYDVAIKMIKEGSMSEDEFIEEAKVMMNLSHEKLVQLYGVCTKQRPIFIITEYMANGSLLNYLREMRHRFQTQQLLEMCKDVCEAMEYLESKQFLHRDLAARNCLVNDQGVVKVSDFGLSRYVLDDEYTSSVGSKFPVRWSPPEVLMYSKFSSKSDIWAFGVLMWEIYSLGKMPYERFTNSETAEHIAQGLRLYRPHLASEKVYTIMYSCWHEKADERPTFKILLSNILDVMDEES
Sequence of full-length human BTK (Q06187 whole entry): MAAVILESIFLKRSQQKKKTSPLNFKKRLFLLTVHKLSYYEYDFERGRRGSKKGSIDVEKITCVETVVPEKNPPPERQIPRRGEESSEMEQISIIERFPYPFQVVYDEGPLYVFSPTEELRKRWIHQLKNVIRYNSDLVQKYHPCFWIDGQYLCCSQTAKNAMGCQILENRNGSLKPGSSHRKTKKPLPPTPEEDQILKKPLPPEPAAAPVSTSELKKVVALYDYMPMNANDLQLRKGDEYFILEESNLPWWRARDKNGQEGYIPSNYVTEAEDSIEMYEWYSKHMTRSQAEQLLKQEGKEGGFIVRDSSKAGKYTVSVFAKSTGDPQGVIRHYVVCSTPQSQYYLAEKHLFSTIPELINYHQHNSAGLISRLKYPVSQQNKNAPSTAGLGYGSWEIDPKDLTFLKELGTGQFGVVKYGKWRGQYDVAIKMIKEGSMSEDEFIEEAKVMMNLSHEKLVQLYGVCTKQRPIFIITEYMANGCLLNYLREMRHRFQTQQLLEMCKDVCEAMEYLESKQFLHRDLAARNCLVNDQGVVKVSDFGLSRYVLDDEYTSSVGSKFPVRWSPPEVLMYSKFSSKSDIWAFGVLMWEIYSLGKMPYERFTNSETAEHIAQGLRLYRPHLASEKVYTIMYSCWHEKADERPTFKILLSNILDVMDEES

Turning to `Cn1cc(-c2nc3c(-c4cccc(NC(=O)N5CC(OC(C)(C)C)C5)c4CO)ccnc3[nH]2)cn1` [Example 91, 3-(tert-Butoxy)-N-[2-(hydroxymethyl)-3-[2-(1-methyl-1H-pyrazol-4-yl)-3H-imidazo[4,5-b]pyridin-7-yl]phenyl]azetidine-1-carboxamide], the IC50 (commonly the point on the concentration scale where inhibition reaches its midpoint) is under 100 nM on full-length human BTK, under 100 nM in test [1] and 100 to 1000 nM in test [2].

For `Cc1cc(-c2ccnc3[nH]c(-c4cnn(C)c4)nc23)ccc1CNC(=O)c1nnc(C(C)(C)C)o1` [Example 103, 5-tert-Butyl-[1,3,4]oxadiazole-2-carboxylic acid 2-methyl-4-[2-(1-methyl-1H-pyrazol-4-yl)-3H-imidazo[4,5-b]pyridin-7-yl]-benzylamide], the IC50 (on full-length human BTK; in test [1]; in test [2]) was under 100 nM each time.

As for `Cn1cc(-c2nc3c(-c4ccc(CNC(=O)CCCC(C)(C)C)c(F)c4)ccnc3[nH]2)cn1` [Example 14, 5,5-Dimethyl-hexanoic acid 2-fluoro-4-[2-(1-methyl-1H-pyrazol-4-yl)-3H-imidazo[4,5-b]pyridin-7-yl]-benzylamide], the values for the IC50 (on full-length human BTK; in test [1]; in test [2]) were under 100 nM, under 100 nM and 1000 to 5000 nM, respectively.

Regarding `CC(C)(C)c1nc(C(=O)NCc2ccc(-c3ccnc4[nH]c(-c5cnn(CCO)c5)nc34)cc2F)no1` [Example 70, 5-tert-Butyl-N-[(2-fluoro-4-[2-[1-(2-hydroxyethyl)-1H-pyrazol-4-yl]-3H-imidazo[4,5-b]pyridin-7-yl]phenyl)methyl]-1,2,4-oxadiazole-3-carboxamide], the IC50 is under 100 nM at full-length human BTK, under 100 nM in test [1] and 100 to 1000 nM in test [2].

`CN(C)c1ccc(-c2nc3c(-c4ccc(C5(NC(=O)c6ccc(C(C)(C)C)cc6)CC5)cc4)ccnc3[nH]2)nc1` [Example 54, 4-tert-Butyl-N-[1-(4-[2-[5-(dimethylamino)pyridin-2-yl]-3H-imidazo[4,5-b]pyridin-7-yl]phenyl)cyclopropyl]benzamide]: the IC50 on full-length human BTK was under 100 nM; in test [1], 100 to 1000 nM; in test [2] it was 100 to 1000 nM.

On to `Cn1cc(-c2nc3c(-c4cc(F)cc(N5CCOc6cc(C7CC7)cc(F)c6C5=O)c4CO)ccnc3[nH]2)cn1` [Example 37, 8-Cyclopropyl-6-fluoro-4-[5-fluoro-2-(hydroxymethyl)-3-[2-(1-methyl-1H-pyrazol-4-yl)-3H-imidazo [4,5-b]pyridin-7-yl]phenyl]-2,3,4,5-tetrahydro-1,4-benzoxazepin-5-one], for which the IC50 was under 100 nM on full-length human BTK, under 100 nM in test [1] and 100 to 1000 nM in test [2].

As to `Cn1cc(-c2nc3c(-c4ccc(C5(NC(=O)N6CC(OC(C)(C)C)C6)CC5)c(F)c4)ccnc3[nH]2)cn1` [Example 52, 3-(tert-Butoxy)-N-(1-[2-fluoro-4-[2-(1-methyl-1H-pyrazol-4-yl)-3H-imidazo[4,5-b]pyridin-7-yl]phenyl]cyclopropyl)azetidine-1-carboxamide], the IC50 on full-length human BTK is under 100 nM; in test [1], under 100 nM; in test [2], 100 to 1000 nM.

In the case of `CN1CCN(c2ccc(-c3nc4c(-c5ccc(CNC(=O)c6noc(C(C)(C)C)n6)c(F)c5)ccnc4[nH]3)nc2)CC1` [Example 79, 5-tert-Butyl-N-[(2-fluoro-4-[2-[5-(4-methylpiperazin-1-yl)pyridin-2-yl]-3H-imidazo[4,5-b]pyridin-7-yl]phenyl)methyl]-1,2,4-oxadiazole-3-carboxamide], the IC50 (at full-length human BTK; in test [1]; in test [2]) was under 100 nM each time.

Regarding `CN(C)c1ccc(-c2nc3c(-c4ccc(CNC(=O)c5noc(C(C)(C)C)n5)c(F)c4)ccnc3[nH]2)cc1` [Example 145, 5-(tert-butyl)-N-(4-(2-(4-(dimethylamino)phenyl)-3H-imidazo[4,5-b]pyridin-7-yl)-2-fluorobenzyl)-1,2,4-oxadiazole-3-carboxamide], the IC50 (at full-length human BTK; in test [1]; in test [2]) was under 100 nM in each case.

On to `Cn1cc(-c2nc3c(-c4ccc(CNC(=O)c5nnc(C(C)(C)C)o5)c(F)c4)ccnc3[nH]2)cn1` [Example 111, 5-tert-Butyl-[1,3,4]oxadiazole-2-carboxylic acid 2-fluoro-4-[2-(1-methyl-1H-pyrazol-4-yl)-3H-imidazo[4,5-b]pyridin-7-yl]-benzylamide], for which the results for the IC50 (at full-length human BTK; in test [1]; in test [2]) were under 100 nM, under 100 nM and 100 to 1000 nM, respectively.

For the compound `Cn1cc(-c2nc3c(-c4ccc(C5(NC(=O)c6ccc(C(C)(C)C)cc6)CC5)cc4)ccnc3[nH]2)cn1` [Example 113, 4-tert-Butyl-N-(1-{4-[2-(1-methyl-1H-pyrazol-4-yl)-3H-imidazo[4,5-b]pyridin-7-yl]-phenyl}-cyclopropyl)-benzamide], the IC50 on full-length human BTK is under 100 nM; in test [1] it was under 100 nM; in test [2], 100 to 1000 nM.

Turning to `Cn1cc(-c2nc3c(-c4ccc(C5(NC(=O)c6noc(C(C)(C)C)n6)CC5)cc4)ccnc3[nH]2)cn1` [Example 53, 5-tert-Butyl-N-(1-[4-[2-(1-methyl-1H-pyrazol-4-yl)-3H-imidazo[4,5-b]pyridin-7-yl]phenyl]cyclopropyl)-1,2,4-oxadiazole-3-carboxamide], the concentration for half-maximal inhibition (IC50) (on full-length human BTK; in test [1]; in test [2]) was under 100 nM in each case.

In the case of `COc1ccc(-c2nc3c(-c4ccc(CNC(=O)c5ccc(C(C)(C)C)cc5)c(F)c4)ccnc3[nH]2)cc1` [Example 62, 4-tert-Butyl-N-([2-fluoro-4-[2-(4-methoxyphenyl)-3H-imidazo[4,5-b]pyridin-7-yl]phenyl]methyl) benzamide], the IC50 at full-length human BTK was under 100 nM; in test [1] it was under 100 nM; in test [2], 100 to 1000 nM.

Turning to `Cn1cc(-c2nc3c(-c4ccnc(N5CCn6c(cc7c6CC(C)(C)C7)C5=O)c4CO)ccnc3[nH]2)cn1` [Example 11, 2-(3-(hydroxymethyl)-4-(2-(1-methyl-1H-pyrazol-4-yl)-3H-imidazo[4,5-b]pyridin-7-yl)pyridin-2-yl)-7,7-dimethyl-2,3,4,6,7,8-hexahydro-1H-cyclopenta[4,5]pyrrolo[1,2-a]pyrazin-1-one], the IC50 on full-length human BTK is under 100 nM; in test [1] it was under 100 nM; in test [2], 100 to 1000 nM.

`Cn1cc(-c2nc3c(-c4cc(F)cc(N5CCn6c(cc7c6CC(C)(C)C7)C5=O)c4CO)ccnc3[nH]2)cn1` [Example 10, 2-(5-fluoro-2-(hydroxymethyl)-3-(2-(1-methyl-1H-pyrazol-4-yl)-3H-imidazo[4,5-b]pyridin-7-yl)phenyl)-7,7-dimethyl-2,3,4,6,7,8-hexahydro-1H-cyclopenta[4,5]pyrrolo[1,2-a]pyrazin-1-one]: the IC50 (on full-length human BTK; in test [1]; in test [2]) was under 100 nM in each case.

`O=C(NCc1ccc(-c2ccnc3[nH]c(-c4cnn(CCN5CCOCC5)c4)nc23)cc1F)c1nnc(C2CCOCC2)o1` [Example 122, 5-(Tetrahydro-pyran-4-yl)-[1,3,4]oxadiazole-2-carboxylic acid 2-fluoro-4-{2-[1-(2-morpholin-4-yl-ethyl)-1H-pyrazol-4-yl]-3H-imidazo[4,5-b]pyridin-7-yl}-benzylamide]: the IC50 at full-length human BTK is 100 to 1000 nM; in test [1], 100 to 1000 nM; in test [2], over 5000 nM.

For the compound `CN(C)c1ccc(-c2nc3c(-c4ccc(CNC(=O)c5ccc(C(C)(C)C)cc5)c(F)c4)ccnc3[nH]2)nc1` [Example 89, 4-tert-Butyl-N-[(4-[2-[5-(dimethylamino)pyridin-2-yl]-3H-imidazo[4,5-b]pyridin-7-yl]-2-fluorophenyl)methyl]benzamide], the IC50 on full-length human BTK is under 100 nM; in test [1], under 100 nM; in test [2] it was 1000 to 5000 nM.

Take `CC(C)(C)c1nc(C(=O)NCc2ccc(-c3ccnc4[nH]c(C5CC5)nc34)cc2F)no1` [Example 27, 5-tert-Butyl-[1,2,4]oxadiazole-3-carboxylic acid 4-(2-cyclopropyl-3H-imidazo[4,5-b]pyridin-7-yl)-2-fluoro-benzylamide]: the IC50 is under 100 nM on full-length human BTK, under 100 nM in test [1] and 1000 to 5000 nM in test [2].

With `Cn1cc(-c2nc3c(-c4ccc(CNC(=O)c5noc(C(C)(C)N)n5)c(F)c4)ccnc3[nH]2)cn1` [Example 58, 5-(2-Aminopropan-2-yl)-N-([2-fluoro-4-[2-(1-methyl-1H-pyrazol-4-yl)-3H-imidazo[4,5-b]pyridin-7-yl]phenyl]methyl)-1,2,4-oxadiazole-3-carboxamide], the results for the IC50 (on full-length human BTK; in test [1]; in test [2]) were under 100 nM, under 100 nM and 1000 to 5000 nM, respectively.

For `Cn1cc(-c2nc3c(-c4ccc(CN5CCOc6cc(C7CC7)cc(F)c6C5=O)c(F)c4)ccnc3[nH]2)cn1` [Example 34, 8-Cyclopropyl-6-fluoro-4-([2-fluoro-4-[2-(1-methyl-1H-pyrazol-4-yl)-3H-imidazo[4,5-b]pyridin-7-yl]phenyl]methyl)-2,3,4,5-tetrahydro-1,4-benzoxazepin-5-one], the results for the IC50 (on full-length human BTK; in test [1]; in test [2]) were under 100 nM, under 100 nM and 100 to 1000 nM, respectively.
